Columns and labels:
RARβ = target: T1, RARβ (Homo sapiens, UniProt P10826); assay: RAR receptor activity as stated for the retinoid ligand; details: ligand specific to RAR receptors and not to RXR receptors
T1 sequence (P10826 1-455): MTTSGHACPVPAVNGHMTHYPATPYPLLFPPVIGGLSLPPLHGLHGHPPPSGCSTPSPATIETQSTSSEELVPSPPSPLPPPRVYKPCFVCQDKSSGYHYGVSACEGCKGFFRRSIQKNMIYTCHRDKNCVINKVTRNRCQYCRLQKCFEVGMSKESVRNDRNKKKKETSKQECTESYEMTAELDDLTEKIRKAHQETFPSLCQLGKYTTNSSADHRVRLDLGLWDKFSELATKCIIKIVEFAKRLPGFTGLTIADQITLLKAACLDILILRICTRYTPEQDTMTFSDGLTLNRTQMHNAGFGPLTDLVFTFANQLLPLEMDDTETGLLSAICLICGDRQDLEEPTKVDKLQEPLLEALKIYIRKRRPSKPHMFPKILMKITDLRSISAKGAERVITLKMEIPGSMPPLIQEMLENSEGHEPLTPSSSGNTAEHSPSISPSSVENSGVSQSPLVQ
From the text: Likewise, methods of screening candidate compounds for Specific RAR modulating activity is routine and well-known in the art. For example, U.S. Pat. No. 5,455,265, incorporated by reference herein, describes a chimeric receptor transactivation assay which tests for RAR-agonist activity in the RAR-α, RAR-β, RAR-γ, RXR-α receptor subtypes. Briefly, this assay employs chimeric proteins containing an RAR ligand-binding domain and a heterologous polypeptide segment having the ability to bind to a response element (RE), in turn facilitating transcription of a specific, measurable target gene, such as chloramphenicol acetyltransferase (CAT). Only an agonist of the given RAR isotype whose ligand binding domain comprises part of the chimeric protein will permit the activation of CAT transcription and expression. […] For example, those ligands able to stimulate CAT synthesis when used in combination with chimeric proteins having RAR binding domains, but not those having RXR ligand binding domains, will be RAR specific agonists.

[1] = tested on: alveolus formation (septation) in rat lung; assay: Alveolus formation in newborn rat pups injected intraperitoneally daily (lung histology and morphometry); type: in vivo, Sprague-Dawley rat
From the text: The expression of the RARβ receptor has been associated in certain cases with diminished cell replication. Following the initial injection, the rat pups were subjected to identical daily injections until day 13. A set of rat pups were sacrificed at day 4 and at […] by anesthesia with phenobarbitol sodium and scission of the abdominal aorta. Following sacrifice, rat lungs were fixed and histological sections prepared essentially as described in Massaro et al., Am. J. Physiol. 270: L305 (1996), incorporated by reference herein. The histological sections were viewed and photographs taken under light microscopy.
The differences in alveolar dimensions between treated and untreated rat pups were so pronounced, they were quantitated by measuring the distance between alveolar walls (Lm) and the surface-to-volume ratio (S/V) of the gas-exchange structures (septa). The Lm in cottonseed oil-treated rats was 80 μm±2.8 μm (N=4) compared to 110 μm±7.3 μm (N=3) in RARβ agonist-treated rats (N=3; P=0.03 by Mann Whitney nonparametric analysis). The S/V was 504 μm^−1±18 μm^−1 (N=4) in cottonseed oil-treated rats compared to 365 μm^−1±23 μm^−1 (N=3) in RARβ agonist-treated rats (P=0.03).

[2] = tested on: elastase-induced destruction of alveolar walls; details: elastase-treated rats; cited from earlier work
[3] = tested on: alveolus formation in newborn rat lung; details: newborn rats; cited from earlier work

receptor activity (RARβ)	Structure (SMILES)	histological sections: alveolar size and degree of septation ([1]; age 14 days, treated daily from age 3 through 13 days, versus cottonseed oil alone (FIGS. 1A and 1B))	distance between alveolar walls (Lm) ([1]; rat pups, 500 micrograms per kg i.p. daily from age 3 to 13 days, age 14 days, N=3, cottonseed oil control 80 μm±2.8 μm, P=0.03)	surface-to-volume ratio (S/V) of the gas-exchange structures ([1]; rat pups, 500 micrograms per kg i.p. daily from age 3 to 13 days, N=3, cottonseed oil control 504 μm^−1±18 μm^−1, P=0.03)	surface area ([1]; rat pups, 500 micrograms per kg i.p. daily from age 3 to 13 days, cottonseed oil control 634 cm^2 ±9 cm^2, P=0.03)	Lung volume ([1]; treated rats versus cottonseed oil-treated rats)	effect on elastase-induced alveolar wall destruction [2]	effect on number of alveoli [3]
RARβ agonist activity	CC1(C)CC=C(c2cccs2)c2cc(C#Cc3ccc(C(=O)O)cc3)ccc21 [AGN 193174]	alveoli were larger, and the degree of sepatation less	110 μm	365 μm^−1	492 cm^2	the same in both rat groups		
	CC1=C(/C=C/C(C)=C/C=C/C(C)=C/C(=O)O)C(C)(C)CCC1 [all-trans-retinoic acid]						appeared to reverse this destruction	induced the formation of an increased number of alveoli in rats without enlarging the lung

Reference: US20010053758A1, “Methods and compositions for the treatment and prevention of lung disease” (priority 1999, published 2001)
